Two molecules from publication PMC12514573, “The bacterial tRNA-modifying enzyme tRNA^Ile lysidine synthetase is genetically conserved but catalytically variable” (The Journal of Biological Chemistry, 2025) can be followed below.

Molecules are shown by their SMILES.

Common to all, as to assay type: biochemical
Test [1] has as its target T1, BfTilS (Bacteroides fragilis, UniProt Q5LFM6).
T1 construct: gene tilS; recombinant, pET-28a, Rosetta II E. coli; strain source only in supplement (codon-usage genome NCTC9343)
T1 sequence (Q5LFM6 1-435): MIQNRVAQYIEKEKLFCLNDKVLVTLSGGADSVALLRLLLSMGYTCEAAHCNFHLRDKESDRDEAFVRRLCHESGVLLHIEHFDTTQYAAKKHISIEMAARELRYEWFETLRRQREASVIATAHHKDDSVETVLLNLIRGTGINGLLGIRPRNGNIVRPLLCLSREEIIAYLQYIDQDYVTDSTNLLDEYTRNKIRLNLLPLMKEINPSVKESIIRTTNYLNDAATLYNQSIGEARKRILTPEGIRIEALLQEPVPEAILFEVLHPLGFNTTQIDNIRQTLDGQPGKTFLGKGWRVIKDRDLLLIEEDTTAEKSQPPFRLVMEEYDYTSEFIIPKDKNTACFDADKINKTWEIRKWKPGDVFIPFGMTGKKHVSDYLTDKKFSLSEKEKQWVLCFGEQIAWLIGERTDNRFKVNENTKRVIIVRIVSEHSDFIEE
Briefly: 3H-lysine incorporation into tRNA, filter scintillation. Particulars: labelled compound; cognate tRNA(Ile2) transcript, 2 mM ATP, 10 mM MgCl2, 10 mM KCl, pH 8.5.

Test [2] has as its target T2, GkTilS (Geobacillus kaustophilus, UniProt Q5L3T3).
T2 construct: gene tilS; recombinant, pET-28a, Rosetta II E. coli; strain source only in supplement (codon-usage genome HTA426)
T2 sequence (Q5L3T3 1-464): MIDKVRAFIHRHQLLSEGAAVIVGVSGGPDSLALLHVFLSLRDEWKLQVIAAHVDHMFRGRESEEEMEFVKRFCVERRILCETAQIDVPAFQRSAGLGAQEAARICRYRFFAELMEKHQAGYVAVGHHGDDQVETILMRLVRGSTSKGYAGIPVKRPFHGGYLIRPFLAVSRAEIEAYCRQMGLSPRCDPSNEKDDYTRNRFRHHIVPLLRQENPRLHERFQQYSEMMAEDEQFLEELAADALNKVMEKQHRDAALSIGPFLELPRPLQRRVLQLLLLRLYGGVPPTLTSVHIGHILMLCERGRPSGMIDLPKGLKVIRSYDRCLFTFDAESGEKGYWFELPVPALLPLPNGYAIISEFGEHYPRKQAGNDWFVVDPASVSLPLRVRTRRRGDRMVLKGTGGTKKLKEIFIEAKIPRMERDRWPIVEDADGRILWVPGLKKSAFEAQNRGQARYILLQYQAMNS
Described as above. Particulars: labelled compound; cognate tRNA(Ile2) transcript, 2 mM ATP, 10 mM MgCl2, 10 mM KCl, pH 9.0.

In test [3] the target is T3, PaTilS (Pseudomonas aeruginosa, UniProt Q9HXZ3).
T3 construct: gene tilS; recombinant, pET-28a, Rosetta II E. coli; strain source only in supplement (codon-usage genome PAO1)
T3 sequence (Q9HXZ3 1-442): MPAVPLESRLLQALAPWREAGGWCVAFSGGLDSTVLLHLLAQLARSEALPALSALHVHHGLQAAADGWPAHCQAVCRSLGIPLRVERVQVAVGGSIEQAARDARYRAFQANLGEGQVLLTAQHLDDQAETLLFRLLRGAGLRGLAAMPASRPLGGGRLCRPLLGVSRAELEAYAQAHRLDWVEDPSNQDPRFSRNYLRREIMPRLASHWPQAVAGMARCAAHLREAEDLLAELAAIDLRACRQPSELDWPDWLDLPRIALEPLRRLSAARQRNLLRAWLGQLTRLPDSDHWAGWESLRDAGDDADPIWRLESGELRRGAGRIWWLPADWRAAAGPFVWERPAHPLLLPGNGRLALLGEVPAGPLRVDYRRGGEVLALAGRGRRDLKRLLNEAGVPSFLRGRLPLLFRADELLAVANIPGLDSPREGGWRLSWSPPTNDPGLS
The description is as above. To be noted: labelled compound; cognate tRNA(Ile2) transcript, 2 mM ATP, 10 mM MgCl2, 10 mM KCl, pH 9.0.

For test [4], the target named is T4, BcTilS (Burkholderia cenocepacia, UniProt B4ED70).
T4 construct: gene tilS; recombinant, pET-28a, Rosetta II E. coli; strain source only in supplement (codon-usage genome HI2424)
T4 sequence (B4ED70 1-473): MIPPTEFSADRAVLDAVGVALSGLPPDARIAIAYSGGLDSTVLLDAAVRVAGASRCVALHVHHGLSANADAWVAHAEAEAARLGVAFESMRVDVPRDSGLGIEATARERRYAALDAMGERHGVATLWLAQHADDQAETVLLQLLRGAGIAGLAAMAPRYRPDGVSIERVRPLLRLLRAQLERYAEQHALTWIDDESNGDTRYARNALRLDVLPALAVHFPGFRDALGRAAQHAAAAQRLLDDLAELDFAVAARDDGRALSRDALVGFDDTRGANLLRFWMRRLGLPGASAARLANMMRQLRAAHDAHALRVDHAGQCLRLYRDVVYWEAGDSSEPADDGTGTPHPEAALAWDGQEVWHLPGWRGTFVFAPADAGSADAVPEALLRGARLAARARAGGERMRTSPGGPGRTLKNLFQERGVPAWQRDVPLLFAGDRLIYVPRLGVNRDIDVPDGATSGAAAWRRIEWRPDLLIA
The test is described as above. Particulars: labelled compound; cognate tRNA(Ile2) transcript, 2 mM ATP, 10 mM MgCl2, 10 mM KCl, pH 9.0.

Test [5] deals with T5, EcTilS (Escherichia coli, UniProt P52097).
T5 construct: gene tilS; recombinant, pET-28a, Rosetta II E. coli; strain source only in supplement (codon-usage genome W3110)
T5 sequence (P52097 1-432): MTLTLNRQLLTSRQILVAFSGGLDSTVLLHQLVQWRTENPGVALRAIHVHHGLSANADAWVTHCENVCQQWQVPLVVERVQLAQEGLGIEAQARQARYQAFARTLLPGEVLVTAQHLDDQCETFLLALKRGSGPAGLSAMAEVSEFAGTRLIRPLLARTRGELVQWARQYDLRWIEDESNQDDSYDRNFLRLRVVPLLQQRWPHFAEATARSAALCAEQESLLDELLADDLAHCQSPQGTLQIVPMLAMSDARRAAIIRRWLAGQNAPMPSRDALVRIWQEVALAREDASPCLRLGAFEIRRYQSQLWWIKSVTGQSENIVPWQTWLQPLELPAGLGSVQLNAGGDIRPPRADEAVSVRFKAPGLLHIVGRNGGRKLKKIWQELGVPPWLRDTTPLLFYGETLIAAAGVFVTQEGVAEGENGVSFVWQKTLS
The description is as above. Particulars: labelled compound; cognate tRNA(Ile2) transcript, 2 mM ATP, 10 mM MgCl2, 10 mM KCl, pH 9.0.

Test [6] has as its target T6, HpTilS (Helicobacter pylori, UniProt O25428).
T6 construct: gene tilS; type II TilS; recombinant, Rosetta II E. coli; strain source only in supplement (codon-usage genome 26695)
T6 sequence (O25428 1-336): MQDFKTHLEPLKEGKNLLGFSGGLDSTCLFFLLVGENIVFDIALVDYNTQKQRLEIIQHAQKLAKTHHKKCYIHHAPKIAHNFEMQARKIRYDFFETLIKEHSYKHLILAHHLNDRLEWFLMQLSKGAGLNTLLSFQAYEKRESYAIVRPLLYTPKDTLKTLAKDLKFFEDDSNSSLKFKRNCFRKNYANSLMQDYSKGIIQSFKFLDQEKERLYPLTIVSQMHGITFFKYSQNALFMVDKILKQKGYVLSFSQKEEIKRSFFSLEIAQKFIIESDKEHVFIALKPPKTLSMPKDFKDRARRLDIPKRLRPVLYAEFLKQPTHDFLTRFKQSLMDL
The description is as above. Particulars: labelled compound; cognate tRNA(Ile2) transcript, 2 mM ATP, 10 mM MgCl2, 10 mM KCl, pH 8.5.

Test [7] has as its target T7, MsTilS (Mycolicibacterium smegmatis, UniProt A0R594).
T7 construct: gene tilS; type II TilS, lacks CTD2 naturally; recombinant, Rosetta II E. coli; strain source only in supplement (codon-usage genome MG(2)155)
T7 sequence (A0R594 1-322): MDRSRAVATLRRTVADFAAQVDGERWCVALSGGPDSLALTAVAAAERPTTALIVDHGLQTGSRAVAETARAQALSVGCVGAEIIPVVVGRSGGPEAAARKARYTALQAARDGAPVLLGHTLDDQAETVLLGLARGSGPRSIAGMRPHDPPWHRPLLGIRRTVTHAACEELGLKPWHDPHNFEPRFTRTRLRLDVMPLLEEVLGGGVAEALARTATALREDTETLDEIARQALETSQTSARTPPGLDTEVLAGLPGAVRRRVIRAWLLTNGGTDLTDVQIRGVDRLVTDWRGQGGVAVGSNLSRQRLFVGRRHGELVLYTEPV
The description is as above. To be noted: labelled compound; cognate tRNA(Ile2) transcript, 2 mM ATP, 10 mM MgCl2, 10 mM KCl, pH 8.5.

Test [8] concerns the target T8, GkMetRS (Geobacillus kaustophilus, UniProt Q5L3W2).
T8 construct: gene metG; recombinant, cloned metS gene; details not in main text
Briefly: tRNA methionylation (aminoacylation). To be noted: cognate tRNA(Met) transcript; assay details not given.

The target of test [9] is T9, PaMetRS (Pseudomonas aeruginosa, UniProt Q9HYC7).
T9 construct: gene metG; recombinant, cloned metS gene; details not in main text
T9 sequence (Q9HYC7 1-677): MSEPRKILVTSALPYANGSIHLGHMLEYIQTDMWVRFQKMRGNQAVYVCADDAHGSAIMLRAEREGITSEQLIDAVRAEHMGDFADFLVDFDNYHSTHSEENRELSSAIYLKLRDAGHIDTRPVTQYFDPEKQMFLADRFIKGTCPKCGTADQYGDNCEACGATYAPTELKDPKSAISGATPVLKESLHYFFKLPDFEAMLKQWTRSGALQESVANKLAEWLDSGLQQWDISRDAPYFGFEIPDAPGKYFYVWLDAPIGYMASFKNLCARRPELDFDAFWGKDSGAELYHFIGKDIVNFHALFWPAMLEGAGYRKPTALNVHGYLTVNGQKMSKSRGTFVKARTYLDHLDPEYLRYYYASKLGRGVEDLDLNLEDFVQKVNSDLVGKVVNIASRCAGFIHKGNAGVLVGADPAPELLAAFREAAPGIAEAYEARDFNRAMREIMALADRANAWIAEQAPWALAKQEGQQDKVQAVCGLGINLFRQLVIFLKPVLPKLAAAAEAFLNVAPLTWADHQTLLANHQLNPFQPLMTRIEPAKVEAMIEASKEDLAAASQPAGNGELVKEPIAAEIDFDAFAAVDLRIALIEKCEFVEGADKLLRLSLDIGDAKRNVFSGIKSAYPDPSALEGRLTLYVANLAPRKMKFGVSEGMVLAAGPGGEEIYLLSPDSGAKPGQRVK
Put plainly: tRNA methionylation (aminoacylation). To be noted: cognate tRNA(Met) transcript; assay details not given.

Test [10] deals with T10, BcMetRS (Burkholderia cenocepacia, UniProt A0K9L0).
T10 construct: gene metG; recombinant, cloned metS gene; details not in main text
T10 sequence (A0K9L0 1-718): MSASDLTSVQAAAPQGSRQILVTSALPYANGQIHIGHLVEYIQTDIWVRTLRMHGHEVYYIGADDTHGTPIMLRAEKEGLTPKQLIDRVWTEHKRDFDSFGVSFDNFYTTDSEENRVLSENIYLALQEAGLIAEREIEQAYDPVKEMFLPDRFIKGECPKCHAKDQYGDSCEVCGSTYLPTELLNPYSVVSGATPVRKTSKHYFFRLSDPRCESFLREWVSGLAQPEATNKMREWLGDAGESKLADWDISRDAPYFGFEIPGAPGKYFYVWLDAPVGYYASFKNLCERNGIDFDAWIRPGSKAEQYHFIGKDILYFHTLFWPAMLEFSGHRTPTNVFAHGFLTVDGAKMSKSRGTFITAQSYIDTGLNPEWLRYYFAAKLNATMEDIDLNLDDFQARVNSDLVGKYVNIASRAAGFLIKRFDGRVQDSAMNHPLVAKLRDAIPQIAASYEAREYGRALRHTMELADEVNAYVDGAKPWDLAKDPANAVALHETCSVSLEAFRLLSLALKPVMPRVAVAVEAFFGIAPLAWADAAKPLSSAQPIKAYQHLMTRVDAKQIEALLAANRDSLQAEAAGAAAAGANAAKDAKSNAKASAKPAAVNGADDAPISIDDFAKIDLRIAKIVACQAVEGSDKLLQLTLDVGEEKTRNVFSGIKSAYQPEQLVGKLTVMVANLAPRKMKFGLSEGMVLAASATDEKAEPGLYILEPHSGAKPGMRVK
Briefly: tRNA methionylation (aminoacylation). Particulars: cognate tRNA(Met) transcript; assay details not given.

T8 sequence (Q5L3W2 1-650): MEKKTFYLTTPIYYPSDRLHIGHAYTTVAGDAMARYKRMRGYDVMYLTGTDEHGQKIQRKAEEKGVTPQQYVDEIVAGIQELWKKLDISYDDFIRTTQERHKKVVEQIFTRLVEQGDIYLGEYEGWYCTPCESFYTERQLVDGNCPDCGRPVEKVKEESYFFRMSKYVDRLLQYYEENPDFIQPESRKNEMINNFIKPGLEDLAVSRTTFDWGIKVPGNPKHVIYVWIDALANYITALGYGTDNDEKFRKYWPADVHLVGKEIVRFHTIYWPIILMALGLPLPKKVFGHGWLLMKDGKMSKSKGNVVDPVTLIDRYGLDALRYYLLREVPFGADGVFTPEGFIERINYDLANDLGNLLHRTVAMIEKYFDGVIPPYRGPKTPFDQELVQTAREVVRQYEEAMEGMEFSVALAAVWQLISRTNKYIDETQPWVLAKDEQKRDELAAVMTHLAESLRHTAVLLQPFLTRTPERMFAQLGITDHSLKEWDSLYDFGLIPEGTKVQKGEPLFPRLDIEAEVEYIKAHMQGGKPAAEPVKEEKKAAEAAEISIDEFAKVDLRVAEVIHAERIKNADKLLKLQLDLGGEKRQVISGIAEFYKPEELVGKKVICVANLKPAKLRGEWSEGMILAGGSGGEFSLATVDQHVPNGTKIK

For the molecule `NCCCC[C@H](N)C(=O)O` [L-lysine], the “3H-lysine incorporation into tRNA, filter scintillation” value in test [1], in test [2], in test [3], in test [4], in test [5] and in [6] was “Filters were counted by liquid scintillation to quantify lysine incorporation into transcript tRNA” each time. For the same molecule, the “3H-lysine incorporation into tRNA, filter scintillation” value in test [7] is “Filters were counted by liquid scintillation to quantify lysine incorporation into transcript tRNA”.
`CSCC[C@H](N)C(=O)O` [methionine]: the “tRNA methionylation (aminoacylation)” value was “evaluated the methionylation activity toward cognate tRNA^Met and near-cognate tRNA^Ile2 substrates” in [8]; “evaluated the methionylation activity toward cognate tRNA^Met and near-cognate tRNA^Ile2 substrates” in test [9]; “evaluated the methionylation activity toward cognate tRNA^Met and near-cognate tRNA^Ile2 substrates” in [10].
